Measurements: patent publication US6525001B1, “Substituted pyrimidine and pyridine herbicides” (Mid-American Commercialization Corporation, priority 1997, dated 2003)

Tests used:
Assay in all cases: Test B pre-/postemergence
Assay type in all cases: in vivo
Parameters in all cases: key: 0 is no effect; 10 is complete control
[1] = tested on: velvetleaf (Abutilon theophrasti)
How it was run: (§1)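 Response scores run from 0, meaning no effect, to 10, meaning complete control, assigned by eye relative to controls twelve to sixteen days after spraying. Treatment was both preemergence on planted seed and postemergence on plants at the 1- to 4-leaf stage.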

[2] = tested on: cocklebur (Xanthium strumarium); details: for Cocklebur plant response rating: Preemergence
How it was run: as §1

[3] = tested on: sugar beet (Beta vulgaris)
How it was run: as §1

[4] = tested on: broadleaf signalgrass (Brachiaria decumbens); details: for B. signalgrass plant response rating: Preemergence
How it was run: as §1

[5] = tested on: blackgrass (Alopecurus myosuroides); details: for Blackgrass plant response rating: Preemergence
How it was run: as §1

[6] = tested on: pigweed (Amaranthus retroflexus)
How it was run: as §1

[7] = tested on: crabgrass (Digitaria sanguinalis); details: for Crabgrass plant response rating: Preemergence
How it was run: as §1

[8] = tested on: wild oat (Avena fatua)
How it was run: as §1

[9] = tested on: soybean (Glycine max)
How it was run: as §1

[10] = tested on: bedstraw (Galium aparine); details: for Bedstraw plant response rating: Preemergence
How it was run: as §1

[11] = tested on: corn (Zea mays); details: for Corn plant response rating: Preemergence
How it was run: as §1

[12] = tested on: rape (Brassica napus)
How it was run: as §1

[13] = tested on: wheat (Triticum aestivum)
How it was run: as §1

[14] = tested on: momingglory (Ipomoea hederacea); details: for Morningglory plant response rating: Preemergence
How it was run: as §1

[15] = Rate 250 g/ha, Postemergence (so in the source)

Cc1cnc(-n2cnc(C(F)(F)F)c2)nc1Cc1cccc(C(F)(F)F)c1 [Compound 44]
1: Corn plant response rating ([11]; Rate 125 g/ha) | Plant response rating, Corn [11, 15] | Plant response rating, Wheat ([13]; Rate 125 g/ha, Preemergence)
5: Cocklebur plant response rating ([2]; Rate 125 g/ha) | Plant response rating, B. signalgrass ([4]; Rate 250 g/ha, Postemergence) | Blackgrass plant response rating ([5]; Rate 62 g/ha) | Plant response rating, Blackgrass ([5]; Rate 125 g/ha, Postemergence) | Plant response rating, Wild oats ([8]; Rate 250 g/ha, Postemergence) | Plant response rating, Soybean ([9]; Rate 62 g/ha, Postemergence) | Bedstraw plant response rating ([10]; Rate 125 g/ha)
0: Soybean plant response rating ([9]; Rate 62 g/ha, Preemergence) | Corn plant response rating ([11]; Rate 62 g/ha) | Wheat plant response rating ([13]; Rate 62 g/ha, Preemergence)
3: Plant response rating, B. signalgrass ([4]; Rate 62 g/ha, Postemergence) | Plant response rating, Crabgrass ([7]; Rate 62 g/ha, Postemergence) | Plant response rating, Corn ([11]; Rate 62 g/ha, Postemergence) | Plant response rating, Corn ([11]; Rate 125 g/ha, Postemergence) | Plant response rating, Corn ([11]; Rate 250 g/ha, Postemergence) | Wheat plant response rating ([13]; Rate 62 g/ha, Postemergence) | Wheat plant response rating ([13]; Rate 125 g/ha, Postemergence) | Plant response rating, Wheat ([13]; Rate 250 g/ha, Postemergence) | Plant response rating, Wheat [13, 15]
6: B. signalgrass plant response rating ([4]; Rate 62 g/ha) | Blackgrass plant response rating ([5]; Rate 125 g/ha) | Wild oats plant response rating ([8]; Rate 62 g/ha, Preemergence) | Soybean plant response rating ([9]; Rate 125 g/ha, Postemergence) | Plant response rating, Soybean ([9]; Rate 250 g/ha, Postemergence)
8: Plant response rating, Velvetleaf ([1]; Rate 62 g/ha, Postemergence) | Velvetleaf plant response rating ([1]; Rate 62 g/ha, Preemergence) | Velvetleaf plant response rating ([1]; Rate 125 g/ha, Postemergence) | Plant response rating, Cocklebur ([2]; Rate 62 g/ha, Postemergence) | Plant response rating, Cocklebur [2, 15] | B. signalgrass plant response rating ([4]; Rate 125 g/ha) | Plant response rating, B. signalgrass ([4]; Rate 250 g/ha, Postemergence as printed in head r139 (second section for compounds 26-50)) | Plant response rating, Bedstraw ([10]; Rate 62 g/ha, Postemergence) | Rape plant response rating ([12]; Rate 125 g/ha, Preemergence) | Morningglory plant response rating ([14]; Rate 62 g/ha)
4: Plant response rating, B. signalgrass ([4]; Rate 125 g/ha, Postemergence) | Plant response rating, Blackgrass ([5]; Rate 62 g/ha, Postemergence) | Crabgrass plant response rating ([7]; Rate 62 g/ha) | Plant response rating, Crabgrass ([7]; Rate 125 g/ha, Postemergence) | Crabgrass plant response rating ([7]; Rate 125 g/ha) | Wild oats plant response rating ([8]; Rate 62 g/ha, Postemergence) | Wild oats plant response rating ([8]; Rate 125 g/ha, Postemergence) | Bedstraw plant response rating ([10]; Rate 62 g/ha) | Rape plant response rating ([12]; Rate 62 g/ha, Preemergence)
10: Plant response rating, Velvetleaf ([1]; Rate 125 g/ha, Preemergence) | Plant response rating, Velvetleaf [1, 15] | Plant response rating, Sugarbeets ([3]; Rate 62 g/ha, Postemergence) | Sugarbeets plant response rating ([3]; Rate 125 g/ha, Postemergence) | Plant response rating, Sugarbeets ([3]; Rate 125 g/ha, Preemergence) | Plant response rating, Sugarbeets ([3]; Rate 250 g/ha, Postemergence) | Plant response rating, Sugarbeets [3, 15] | Redroot pigweed plant response rating ([6]; Rate 125 g/ha, Postemergence) | Plant response rating, Redroot pigweed ([6]; Rate 250 g/ha, Postemergence) | Plant response rating, Redroot pigweed [6, 15] | Plant response rating, Bedstraw [10, 15] | Rape plant response rating ([12]; Rate 125 g/ha, Postemergence) | Plant response rating, Rape ([12]; Rate 250 g/ha, Postemergence) | Plant response rating, Rape [12, 15] | Plant response rating, Morningglory ([14]; Rate 62 g/ha, Postemergence) | Plant response rating, Morningglory ([14]; Rate 250 g/ha, Postemergence) | Plant response rating, Morningglory [14, 15]
7: Plant response rating, Blackgrass ([5]; Rate 250 g/ha, Postemergence) | Redroot pigweed plant response rating ([6]; Rate 62 g/ha, Preemergence) | Plant response rating, Crabgrass ([7]; Rate 250 g/ha, Postemergence) | Plant response rating, Wild oats ([8]; Rate 125 g/ha, Preemergence)
9: Plant response rating, Velvetleaf ([1]; Rate 250 g/ha, Postemergence) | Plant response rating, Cocklebur ([2]; Rate 125 g/ha, Postemergence) | Plant response rating, Cocklebur ([2]; Rate 250 g/ha, Postemergence) | Sugarbeets plant response rating ([3]; Rate 62 g/ha, Preemergence) | Plant response rating, Blackgrass [5, 15] | Plant response rating, Redroot pigweed ([6]; Rate 62 g/ha, Postemergence) | Redroot pigweed plant response rating ([6]; Rate 125 g/ha, Preemergence) | Plant response rating, Crabgrass [7, 15] | Plant response rating, Wild oats [8, 15] | Plant response rating, Bedstraw ([10]; Rate 125 g/ha, Postemergence) | Plant response rating, Bedstraw ([10]; Rate 250 g/ha, Postemergence) | Plant response rating, Rape ([12]; Rate 62 g/ha, Postemergence) | Morningglory plant response rating ([14]; Rate 125 g/ha)
2: Cocklebur plant response rating ([2]; Rate 62 g/ha) | Plant response rating, Soybean ([9]; Rate 125 g/ha, Preemergence) | Plant response rating, Soybean [9, 15]
